Results from patent US20250170155A1, “NUCLEOSIDE DERIVATIVES AND PRODRUGS THEREOF HAVING VIRAL GROWTH INHIBITORY ACTION” (Shionogi & Co., Ltd., priority 2021, published 2025).

Key:
Format in all cases: cell-based
[1] = system: SARS-CoV-2 (hCoV-19/Japan/TY/WK-521/2020 strain); experiment: CPE suppression effect confirmation test (SARS-CoV-2, Vero E6/TMPRSS2 cells), antiviral activity; conditions: for EC50: Severe acute respiratory syndrome coronavirus 2, VeroE6/TMPRSS2, 72 h, read-out: SARS-CoV-2 EC50 (50% CPE inhibitory concentration), 3 days culture
[2] = Cytotoxic activity evaluation, Vero E6/TMPRSS2 cells; conditions: African green monkey, no virus
Experimental: (§1) <Operation Procedure (Cytotoxic Activity Evaluation)>
A 3- to 5-fold serial dilution series of test substances was prepared in DMSO, diluted with 2% FBS/MEM so that the concentration of DMSO was 2%, and dispensed into a 96 well plate (50 μL/well, DMSO final concentration 0.5%). • Dilution and dispensing of cells
The cells prepared to an appropriate number were seeded at 100 μL/well to the plate into which the test substance was dispensed. Thereafter, the cells were cultured in a CO2 incubator at 37° C. for 3 days. • Dispensing of CellTiter-Glo (registered trademark) 2.0 Reagent
(§2) Same as those described in the section for evaluation of antiviral activity • Measurement of luminescence intensity
(§3) Same as those described in the section for evaluation of antiviral activity
Excel, TIBCO Spotfire, or a program having equivalent calculation processing capability based on the following calculation formula.

[3] = system: influenza virus (A/WSN/33 (H1N1) strain); experiment: CPE suppression effect confirmation test (influenza virus, RPMI 2650 cells), antiviral activity; conditions: for EC50: read-out: Influenza EC50 (50% CPE inhibitory concentration), A/WSN/33 (H1N1), 3 to 6 days
[4] = Cytotoxic activity evaluation, RPMI 2650 cells; conditions: human, no virus, 3 to 6 days
Experimental: as §1
On the day before the compound treatment, cells prepared to an appropriate number were seeded in a 96 well plate at 100 μL/well. Thereafter, the cells were cultured in a CO2 incubator at 37° C. • Preparation of 2 μg/mL trypsin/0.5% BSA/MEM
Same as those described in the section for evaluation of antiviral activity • Dilution and dispensing of test substance
A 3- to 5-fold serial dilution series of test substances was prepared in DMSO in advance, and diluted with 2 μg/mL trypsin/0.5% BSA/MEM so that the final concentration of DMSO was 0.5% (100 to 200 μL/well). The cells were washed with MEM, and then cultured in a test substance-added medium for 3 to 6 days. Double measurement was performed for each drug. • Dispensing of resazurin solution
Same as those described in the section for evaluation of antiviral activity • Measurement of fluorescence intensity
as §3
(§4) [formula] [formula] • Calculation of Selectivity Index (SI)

[5] = system: SARS-CoV-2 (hCoV-19/Japan/TY/WK 521/2020 strain); experiment: microbe, parasite or virus in culture; conditions: HEK293T/ACE2-TMPRSS2 cells; for EC50: Severe acute respiratory syndrome coronavirus 2, HEK-293T, 72 h, read-out: SARS-CoV-2 EC50 (50% CPE inhibitory concentration), 293T-AT, 3 days culture
[6] = Cytotoxic activity evaluation, HEK293T/ACE2-TMPRSS2 cells; conditions: human, no virus
Experimental: as §1
A 3- to 5-fold serial dilution series of test substances was prepared in DMSO, diluted with 2% FIBS/MEM so that the concentration of DMSO was 2%, and dispensed into a 96 or 384/well well plate (50 μL/well or 40 μL/well, DMSO final concentration 0.5%). • Dilution and dispensing of cells
The cells prepared to an appropriate number were seeded at 100 μL/well or 40 μL/well to the plate into which the test substance was dispensed. Thereafter, the cells were cultured in a CO2 incubator at 37° C. for 3 days. • Dispensing of CellTiter-Glo (registered trademark) 2.0 Reagent
as §2, §3, §4

Cl.Nc1ncnn2c([C@@H]3N[C@H](CO)[C@@H](O)[C@H]3O)cc(-c3ccc(F)cn3)c12 [Compound I-051]
SARS-CoV-2 SI (Selectivity Index) [1]: >6.13
EC50 [1]: 81.5 µM
CC50 at 3 days [2]: > 500 µM

N#C[C@@]1(c2ccn3c(N)ncnc23)O[C@H](CO)[C@@H](O)[C@H]1O [Compound I-046]
SARS-CoV-2 SI (Selectivity Index) [1]: 15.6
EC50 [1]: 31.1 µM
CC50 at 3 days [2]: 485 µM

Cl.Nc1ncnn2c([C@@H]3N[C@H](CO)[C@@H](O)[C@H]3O)cc(-c3nc[nH]n3)c12 [Compound I-037]
SARS-CoV-2 SI (Selectivity Index) [1]: 8.63
EC50 [1]: 1.97 µM
CC50 at 3 days [2]: 17 µM
Influenza SI (Selectivity Index) [3]: <1.70
EC50 [3]: > 4 µM
CC50 [4]: 6.81 µM

Cl.Nc1nc(F)nn2c([C@@H]3N[C@H](CO)[C@@H](O)[C@H]3O)cc(-c3cc[nH]n3)c12 [Compound I-052]
SARS-CoV-2 SI (Selectivity Index) [1]: >79.7
EC50 [1]: 6.27 µM
CC50 at 3 days [2]: > 500 µM

Cl.Cl.Nc1ncnn2c([C@@H]3N[C@H](CO)[C@@H](O)[C@H]3O)cc(-c3c[nH]cn3)c12 [Compound I-023]
SARS-CoV-2 SI (Selectivity Index) [1]: 923
EC50 [1]: 0.17 µM
CC50 at 3 days [2]: 157 µM
Influenza SI (Selectivity Index) [3]: 52.7
EC50 [3]: 0.983 µM
CC50 [4]: 51.8 µM

Cn1ncc(-c2cc([C@@H]3N[C@H](CO)[C@@H](O)[C@H]3O)n3ncnc(N)c23)n1 [Compound I-086]
SARS-CoV-2 SI (Selectivity Index), 293T-AT [5]: 19.4
EC50 [5]: 11.6 µM
CC50 at 3 days [6]: 225 µM

CN1[C@H](CO)[C@@H](O)[C@@H](O)[C@@H]1c1cc(C(N)=O)c2c(N)ncnn12.Cl [Compound I-076]
SARS-CoV-2 SI (Selectivity Index) [1]: >30.7
EC50 [1]: 16.3 µM
CC50 at 3 days [2]: > 500 µM

Cl.Nc1nc(F)nn2c([C@@H]3N[C@H](CO)[C@@H](O)[C@H]3O)cc(-c3c[nH]nn3)c12 [Compound I-082]
SARS-CoV-2 SI (Selectivity Index), 293T-AT [5]: 37.8
EC50 [5]: 3.97 µM
CC50 at 3 days [6]: 150 µM

Nc1ncnn2c([C@@H]3N[C@H](CO)[C@@H](O)[C@H]3O)cc(-c3ncc[nH]3)c12 [Compound I-033]
SARS-CoV-2 SI (Selectivity Index) [1]: >134
EC50 [1]: 3.74 µM
CC50 at 3 days [2]: > 500 µM

CCn1cc(-c2cc([C@@H]3N[C@H](CO)[C@@H](O)[C@H]3O)n3ncnc(N)c23)cn1.Cl [Compound I-044]
SARS-CoV-2 SI (Selectivity Index) [1]: 16.6
EC50 [1]: 22.6 µM
CC50 at 3 days [2]: 444 µM

Cl.Cn1cc(-c2cc([C@@H]3N[C@H](CO)[C@@H](O)[C@H]3O)n3ncnc(N)c23)nn1 [Compound I-040]
SARS-CoV-2 SI (Selectivity Index) [1]: >5.93
EC50 [1]: 84.3 µM
CC50 at 3 days [2]: > 500 µM

Cl.NC(=O)c1cc([C@@H]2N[C@H](CO)[C@@H](O)[C@H]2O)n2nc(F)nc(N)c12 [Compound I-057]
SARS-CoV-2 SI (Selectivity Index) [1]: 434
EC50 [1]: 0.131 µM
CC50 at 3 days [2]: 56.8 µM

C#CCNC(=O)c1cc([C@@H]2N[C@H](CO)[C@@H](O)[C@H]2O)n2ncnc(N)c12 [Compound I-075]
SARS-CoV-2 SI (Selectivity Index) [1]: >185
EC50 [1]: 2.7 µM
CC50 at 3 days [2]: > 500 µM

Cl.Nc1ncnn2c([C@@H]3N[C@H](CO)[C@@H](O)[C@H]3O)cc(-c3ccn[nH]3)c12 [Compound I-029]
SARS-CoV-2 SI (Selectivity Index) [1]: 9.01
EC50 [1]: 34.7 µM
CC50 at 3 days [2]: 316 µM

Cl.N/C(=N\O)c1cc([C@@H]2N[C@H](CO)[C@@H](O)[C@H]2O)n2nc(F)nc(N)c12 [Compound I-056]
SARS-CoV-2 SI (Selectivity Index) [1]: >17.7
EC50 [1]: 28.2 µM
CC50 at 3 days [2]: > 500 µM

Cc1nc(-c2cc([C@@H]3N[C@H](CO)[C@@H](O)[C@H]3O)n3ncnc(N)c23)c[nH]1.Cl [Compound I-047]
SARS-CoV-2 SI (Selectivity Index) [1]: >10.4
EC50 [1]: 48.2 µM
CC50 at 3 days [2]: > 500 µM

Cl.Nc1ncnc2c([C@@H]3N[C@H](CO)[C@@H](O)[C@H]3O)cc(-c3c[nH]nn3)n12 [Compound I-083]
SARS-CoV-2 SI (Selectivity Index), 293T-AT [5]: 8.71
EC50 [5]: 5.2 µM
CC50 at 3 days [6]: 45.3 µM

NC(=O)c1cc([C@@H]2N[C@H](CO)[C@@H](O)[C@H]2O)n2ncnc(N)c12 [Compound I-010]
SARS-CoV-2 SI (Selectivity Index) [1]: 2488
EC50 [1]: 0.18 µM
CC50 at 3 days [2]: 448 µM
SARS-CoV-2 SI (Selectivity Index), 293T-AT [5]: 1050
EC50 [5]: 0.0395 µM

Cc1cc(-c2cc([C@@H]3N[C@H](CO)[C@@H](O)[C@H]3O)n3nc(F)nc(N)c23)[nH]n1.Cl [Compound I-084]
SARS-CoV-2 SI (Selectivity Index), 293T-AT [5]: 48.2
EC50 [5]: 5.33 µM
CC50 at 3 days [6]: 257 µM

Cc1c[nH]c(-c2cc([C@@H]3N[C@H](CO)[C@@H](O)[C@H]3O)n3ncnc(N)c23)n1 [Compound I-091]
SARS-CoV-2 SI (Selectivity Index), 293T-AT [5]: >2.29
EC50 [5]: 218 µM
CC50 at 3 days [6]: > 250 µM

Cl.Nc1ncnn2c([C@@H]3N[C@H](CO)[C@@H](O)[C@H]3O)cc(-c3nc4ccccc4s3)c12 [Compound I-045]
SARS-CoV-2 SI (Selectivity Index) [1]: 25.4
EC50 [1]: 3.78 µM
CC50 at 3 days [2]: 96 µM

CCn1cc(-c2cc([C@@H]3N[C@H](CO)[C@@H](O)[C@H]3O)n3ncnc(N)c23)nn1.Cl [Compound I-093]
SARS-CoV-2 SI (Selectivity Index), 293T-AT [5]: >2.37
EC50 [5]: 211 µM
CC50 at 3 days [6]: > 500 µM

Cc1nc(N)c2c(C(N)=O)cc([C@@H]3N[C@H](CO)[C@@H](O)[C@H]3O)n2n1.Cl [Compound I-089]
SARS-CoV-2 SI (Selectivity Index), 293T-AT [5]: >14.2
EC50 [5]: 35.3 µM
CC50 at 3 days [6]: > 500 µM

N#C[C@@]1(c2cnc3c(N)ncnn23)O[C@H](CO)[C@@H](O)C1O (some centres unmarked) [Compound I-042]
SARS-CoV-2 SI (Selectivity Index) [1]: >6.66
EC50 [1]: 75.1 µM
CC50 at 3 days [2]: > 500 µM

Nc1ncnn2c([C@@H]3N[C@H](CO)[C@@H](O)[C@H]3O)cnc12 [Compound I-001]
SARS-CoV-2 SI (Selectivity Index) [1]: <1.22
EC50 [1]: > 0.8 µM
CC50 at 3 days [2]: 0.977 µM
Influenza SI (Selectivity Index) [3]: 67.1
EC50 [3]: 1.05 µM
CC50 [4]: 70.5 µM

Cl.Nc1ncnn2c([C@@H]3N[C@H](CO)[C@@H](O)[C@H]3O)cc(-c3n[nH]c4ccccc34)c12 [Compound I-049]
SARS-CoV-2 SI (Selectivity Index) [1]: 5.7
EC50 [1]: 69.6 µM
CC50 at 3 days [2]: 397 µM

Nc1ncnn2c([C@@H]3N[C@H](CO)[C@@H](O)[C@H]3O)cc(F)c12 [Compound I-006]
Influenza SI (Selectivity Index) [3]: 17
EC50 [3]: 0.316 µM
CC50 [4]: 5.38 µM

Cc1cc(-c2cc([C@@H]3N[C@H](CO)[C@@H](O)[C@H]3O)n3ncnc(N)c23)[nH]n1.Cl [Compound I-050]
SARS-CoV-2 SI (Selectivity Index) [1]: >11.0
EC50 [1]: 45.4 µM
CC50 at 3 days [2]: > 500 µM

Nc1ncnn2c([C@@H]3N[C@H](CO)[C@@H](O)[C@H]3O)cc(-c3c[nH]nn3)c12 [Compound I-053]
SARS-CoV-2 SI (Selectivity Index) [1]: 677
EC50 [1]: 0.465 µM
CC50 at 3 days [2]: 315 µM

Nc1ncnn2c([C@@H]3N[C@H](CO)[C@@H](O)[C@H]3O)cc(-c3cccnc3)c12 [Compound I-041]
Influenza SI (Selectivity Index) [3]: >76.2
EC50 [3]: 5.56 µM
CC50 [4]: > 500 µM

Cn1cnc(-c2cc([C@@H]3N[C@H](CO)[C@@H](O)[C@H]3O)n3ncnc(N)c23)c1 [Compound I-039]
SARS-CoV-2 SI (Selectivity Index) [1]: >6.02
EC50 [1]: 83.1 µM
CC50 at 3 days [2]: > 500 µM

Nc1ncnc2c([C@@H]3N[C@H](CO)[C@@H](O)[C@H]3O)cc(/C=N/O)n12 [Compound I-031]
Influenza SI (Selectivity Index) [3]: >1.46
EC50 [3]: 343 µM
CC50 [4]: > 500 µM

CCC1[C@@H](c2ccc3c(N)ncnn23)[C@H](O)[C@H](O)[C@H]1CO (some centres unmarked) [Compound I-007]
Influenza SI (Selectivity Index) [3]: 1.06
EC50 [3]: 473 µM
CC50 [4]: > 500 µM

N=C(N)c1cc([C@@H]2N[C@H](CO)[C@@H](O)[C@H]2O)n2ncnc(N)c12 [Compound I-017]
SARS-CoV-2 SI (Selectivity Index) [1]: >11.1
EC50 [1]: 44.9 µM
CC50 at 3 days [2]: > 500 µM

Nc1ncnn2c([C@@H]3N[C@@H](CO)[C@@H](O)[C@H]3F)ccc12 [Compound I-009]
Influenza SI (Selectivity Index) [3]: 1.23
EC50 [3]: 406 µM
CC50 [4]: > 500 µM
